Experiment [1] concerns osteoclasts. The experiment can be described thus: Differentiation and formation of osteoclasts from bone marrow macrophages (TRAP assay). In kind it is cell-based, ICR mouse. The settings on record: BMM cells. From the text:
Osteoclasts are known to directly affect bone resorption, and the differentiation and formation of osteoclasts play a very important role in osteoporosis. In order to examine the effect of the ethanol extract of Salvia plebeia R. Br. on the differentiation and formation of osteoclasts, the differentiation from bone marrow cells isolated from the femur of an ICR mouse into osteoclasts was observed.
Bone marrow cells were separated from the femur of a three- to six-week old ICR mouse, and the separated cells were treated with M-CSF (30 ng/ml) for 3 days, thereby inducing their differentiation into bone marrow macrophage (BMM). Then, the BMM was treated with M-CSF (30 ng/ml) and RANKL (100 ng/ml) for 4 days, thereby inducing them to be differentiated into osteoclasts. […] Then, the differentiation and formation of osteoclasts were confirmed by TRAP assay.

The test system of experiment [2] is mouse model with osteoporosis induced by ovariectomy. In words: Mouse model with osteoporosis induced by ovariectomy (DEXA, micro CT). The experiment is classed as in vivo, C57BL/6 mouse. The settings on record: compared to PBS after ovariectomy, oral, five weeks.
Description: Test groups were divided into a sham group (only surgery without ovary removal) and a group treated with ovariectomy (OVX). In the OVX group, the ovaries of an eight-week old female C57BL/6 mouse were removed by surgery and the mouse was bred for 6 weeks to induce osteoporosis. […] The sample was used after dissolving in PBS. Furthermore, the sham group was orally administered with PBS for five weeks.
Upon termination of five weeks' oral administration, the Bone Mineral Density (BMD) and Bone Mineral Content (BMC) of the mouse were measured using an osteoporosis analyzing device Dual-Energy X-ray Absorptiometry (DEXA; bone mineral density analyzer), and the results are shown in FIG. 21a-21d.
Upon termination of five weeks' oral administration, the mice of each experimental group were sacrificed, and the bones adjacent to tibia were separated. The bones were then photographed to obtain their 3-dimensional structures and cross-sections via micro CT, and the microstructures and volume of the bones and trabecular thickness were measured.

With `NCCCC(O)(P(=O)(O)O)P(=O)(O)O` [alendronate], in experiment [1] (10 μM), the differentiation of osteoclasts result was “differentiation of osteoclasts was observed”. In addition, the formation of osteoclasts entry in experiment [1] (30 and 60 μM) is on record as “osteoclasts were not formed due to toxicity”. Also, in experiment [2], the “Bone Mineral Content (BMC)” value was “significant increase”.

For the origin of these results see patent US20150174186A1, “PHARMACEUTICAL COMPOSITION FOR PREVENTING OR TREATING STAT3-MEDIATED DISEASE, COMPRISING SALVIA PLEBEIA R. BR. EXTRACT OR FRACTION THEREOF AS ACTIVE INGREDIENT” (Korea Research Institute of Bioscience and Biotechnology, priority 2012, published 2015).
